Consider two molecules from patent US10301664B2, “Repurposing non-antimicrobial drugs and clinical molecules to treat bacterial infections” (Purdue Research Foundation, priority 2015, dated 2019).

By MIC50 is commonly meant an inhibitory concentration at the 50% level, which refers to growth in some studies and to a panel of isolates in others. A word on the MIC90: it is an inhibitory concentration at the 90% level, which refers to growth in some studies and to a panel of isolates in others.

The test system of series [1] is MRSA (23) clinical isolates. Put plainly: MIC against Gram +ve clinical isolates: MRSA. The class given is cell-based, S. aureus. Particulars: for MIC50: MRSA (23).
Series [2] concerns mitochondrial protein synthesis in J774A.1 cells. Put plainly: Mitochondrial biogenesis in-cell ELISA (COX-I / SDH-A). The format is cell-based. Particulars: J774A.1 cells treated for three days. From the text:
Due to concern about the possible mitochondrial toxicities associated with many antibacterial protein synthesis inhibitors such as linezolid and chloramphenicol, we tested the effect of Auranofin and Ebselen on mitochondrial protein synthesis directly within the mammalian cells.

Series [3] relates to A. baumannii. Kind of series: MIC against G-ve with and without colistin: A. baumannii. The class given is cell-based.
Series [4] has as its system K. pneumonia. Put plainly: MIC against G-ve with and without colistin: K. pneumonia. The format is cell-based. Particulars: without colistin.
For series [5], the system named is S. Typhimurium. Put plainly: MIC against G-ve with and without colistin: S. Typhimurium. The class given is cell-based.
The conditions of series [6]: cited from earlier work.
Series [7] has as its system E.. coli O157:H7. Kind of series: MIC against G-ve with and without colistin: E. coli O157:H7. The class given is cell-based.
The subject of series [8] is VISA and VRSA (14) clinical isolates. Kind of series: MIC against Gram +ve clinical isolates: VISA and VRSA. The class given is cell-based, S. aureus. Particulars: Staphylococcus aureus.
Series [9] has as its system VRE (14) clinical isolates. Kind of series: MIC against Gram +ve clinical isolates: VRE. The class given is cell-based, enterococcus.
The subject of series [10] is MRSA USA300. Kind of series: Mouse model of MRSA systemic infection (lethal). The format is in vivo, BALB/c mice. Particulars: oral 30 mg/kg once daily, three doses. An excerpt: For MRSA systemic infection, neutropenic Female BALB/c mice were inoculated IP with 1×10^9 MRSA USA300.
The test system of series [11] is E. cloacae ATCC BAA-1143. Put plainly: Library hits: MIC against E. cloacae. The format is cell-based.
The conditions of series [12]: in vivo.
Series [13] concerns K. pneumoniae ATCC BAA-1705. Kind of series: Library hits: MIC against K. pneumoniae. The class given is cell-based.

Each structure is given as a SMILES string. ≈ marks a conversion by molar mass, not a printed value. Read-outs that look alike come from different tables or passages of the source.

As to `O=c1c2ccccc2[se]n1-c1ccccc1` [Ebselen], the MIC50 is 0.25 µg/mL (≈ 0.912 µM) in [1] (second column per drug); 0.25 µg/mL (≈ 0.912 µM) in series [1] (Staphylococcus aureus, read-out: MIC50); 0.125 µg/mL (≈ 0.456 µM) in [8]; 0.25 µg/mL (≈ 0.912 µM) in series [8] (read-out: MIC50); 0.5 µg/mL (≈ 1.82 µM) in series [9] (Enterococcus, read-out: MIC50); 0.5 µg/mL (≈ 1.82 µM) in series [9] (second column per drug). In series [1] (Staphylococcus aureus, MRSA, read-out: MIC90 (MICs at which 90% of MRSA isolates were inhibited)), the MIC90 was 0.25 µg/mL (≈ 0.912 µM). Also, in series [2], the inhibition of mitobiogenesis entry was “less than 10%”. Further, the “MIC, colistin (+)” value came out at 0.25 µg/mL (≈ 0.912 µM) in series [3] (with sub-inhibitory colistin 0.0625 μg/ml); 0.0625 µg/mL (≈ 0.228 µM) in series [5] (with sub-inhibitory colistin 0.25 μg/ml); 0.125 µg/mL (≈ 0.456 µM) in series [7] (E. coli O157:H7, with sub-inhibitory colistin 0.0625 μg/ml). The “MIC, colistin (−)” value stood at 16 µg/mL (≈ 58.4 µM) in series [3] (without colistin); 64 µg/mL (≈ 233 µM) in [4]; 32 µg/mL (≈ 117 µM) in [5] (without colistin); 32 µg/mL (≈ 117 µM) in [7] (E. coli O157:H7, without colistin). Moreover, the “increase in selenium concentration in the blood” value in series [6] (30 mg/kg dose) was 0.84±0.1 mg/L^−1. Further, the plasma concentration in series [6] (30 mg/kg dose) was 2.91 mg/L. For the same molecule, the “clinically achievable blood concentration” value in series [6] (in vivo) was 2.91 µg/mL. For the same molecule, the mice survival in series [10] was 60%.

On to `O=c1[nH]c(=O)n([C@H]2C[C@H](O)[C@@H](CO)O2)cc1F` [FdUrd, 5-fluoro-2′-deoxyuridine], for which the figures for the MIC/MBC in [11] and in [13] were >16 µM and 8 µM (≈ 1.97 µg/mL), respectively. In series [12], the “achieved plasma concentration after a therapeutic dose relative to required MIC90 against MRSA” value was “more than a thousand-folds higher”.
